Assay results from patent publication US4470977A, “Antiemetic and antipsychotic agents” (Adria Laboratories, Inc., priority 1982, dated 1984).

Assays:
[1] = tested on: dopaminergic receptors; experiment: Antagonism to Apomorphine Induced Climbing Behavior; type: in vivo, mouse; conditions: for Antagonism (20 min. After): 20 minutes after 1 mg/kg s.c. apomorphine, doses 6.25 to 100 mg/kg; for Antagonism (20 min. After) / ED50: mouse; for apomorphine induced climbing behavior (in words): indicator of antipsychotic activity; for ED50: antagonism to apomorphine (1 mg/kg s.c.) induced climbing behavior, p.o.
Description: The effect of each of the compounds in Table 1 on apomorphine induced climbing behavior related to stimulation of dopaminergic receptors was studied under the experimental conditions described by Costetin et al, 1975, Rapid and Dissociated Changes in Sensitivities of Different Dopamine Receptors in Mouse Brain, Nature, 257, 405.

[2] = tested on: mammary gland; experiment: Effect of Sulpiride and Sulpiride Analogs on Mammary Gland Development in Female Sprague Dawley Rats; type: in vivo; conditions: for Number of Animals with Mammary Hypertrophy: n = 6 female Sprague Dawley rats, 0.02% drug in chow, 14 days
Description: The animals were individually caged during the 14-day study, with rat chow and tap water permitted ad libitum. The rat chow fed to the control group contained no drug, while that fed to the other groups contained 0.02% drug. Food cups were weighed and refilled on day 7 during the study. On day 14 of the study, the animals were sacrificed by asphyxiation in a CO2 atmosphere and then were weighed. The abdominal skin was cut along the midline from the pelvis to the sternum and separated from underlying tissues by blunt dissection. Each animal was then examined grossly for mammary gland enlargement.

[3] = tested on: medullary chemoreceptor trigger zone (CTZ); experiment: Antiemetic Screen: Antagonism to Apomorphine Induced Emesis In the Dog; type: in vivo, beagle dogs; parameters: key to Antagonism to Apomorphine Induced Emesis: If both animals receiving a particular treatment are protected (i.e., no emetic response within one hour after apomorphine), the test compound is defined as active (+); conditions: for Antagonism to Apomorphine Induced Emesis: 10 mg/kg sc, beagle dogs, 0.1 mg/kg sc apomorphine HCl one hour later
Experimental: Each compound is administered subcutaneously (sc) to two beagle dogs at 10.0 mg/kg. One hour following administration of the test compound, each animal receives 0.1 mg/kg, sc, of apomorphine HCl. Apomorphine consistently evokes an immediate emetic response through direct dopaminergic interaction at the medullary chemoreceptor trigger zone (CTZ). Antiemetic compounds which act at the CTZ and/or the midbrain vomiting center will block this effect of apomorphine. If both animals receiving a particular treatment are protected (i.e., no emetic response within one hour after apomorphine), the test compound is defined as active (+). In instances where protection is observed in only 1 of the 2 animals, the experiment is repeated in two additional animals and the results of the two tests are combined. Compounds which protect 3 out of 4 animals are then defined as active. The results are shown in Table 4 below and indicate that each of the invention compounds is active against emesis.

[4] = tested on: dopamine receptors; conditions: cited from earlier work

SMILES | Antagonism (20 min. After) [1] | Number of Animals with Mammary Hypertrophy [2] [animals] | Antagonism to Apomorphine Induced Emesis [3] | apomorphine induced climbing behavior (in words) [1] | mammary hypertrophy (in words) [2] | antiemetic effect (in words) [3] | ED50 [1] | undesirable side effect [4]
CCN1CCCC1CNC(=O)c1cccc(N)c1C (stereo not drawn) [Compound 11, 3-amino-N-(1-ethyl-2-pyrrolidinylmethyl)-2-methylbenzamide] | No | 0 | + |  |  |  |  | 
CCN1CCCC1CNC(=O)c1ccc(C)cc1OC (stereo not drawn) [Compound 5, N-(1-ethyl-2-pyrrolidinylmethyl)-2-methoxy-4-methylbenzamide] | Yes | 0 | + |  |  |  |  | 
CCN1CCCC1CNC(=O)c1ccccc1N (stereo not drawn) [Compound 9, 2-amino-N-(1-ethyl-2-pyrrolidinylmethyl)-benzamide] | Yes | 0 | + | suppress apomorphine induced climbing behavior | without mammary hypertrophy | possess an antiemetic effect |  | 
CCN1CCCC1CNC(=O)c1cccc(C)c1[N+](=O)[O-] (stereo not drawn) [Compound 8, N-(1-ethyl-2-pyrrolidinylmethyl)-3-methyl-2-nitrobenzamide] | No | 0 | + |  |  |  |  | 
CCN1CCCC1CNC(=O)c1cccc(C)c1N (stereo not drawn) [Compound 10, 2-amino-N-(1-ethyl-2-pyrrolidinylmethyl)-3-methylbenzamide] | No | 0 | + |  |  |  |  | 
CCN1CCCC1CNC(=O)c1cc(S(N)(=O)=O)ccc1OC (stereo not drawn) [Sulpiride, 2-methoxy-N-(1-ethyl-2-pyrrolidinylmethyl)-5-sulfamoyl benzamide, reference compound] | Yes | 6 |  |  | consistently produce mammary hypertrophy |  | 24.3 (19.3-32.4) mg/kg p.o. | mammary hypertrophy
CCN1CCCC1CNC(=O)c1cc(Cl)ccc1Cl (stereo not drawn) [Compound 12, 2,5-dichloro-N-(1-ethyl-2-pyrrolidinylmethyl)-benzamide] | Yes | 0 | + | suppress apomorphine induced climbing behavior | without mammary hypertrophy | possess an antiemetic effect |  | 
CCN1CCCC1CNC(=O)c1ccc(Cl)cc1OC (stereo not drawn) [Compound 2, 4-chloro-N-(1-ethyl-2-pyrrolidinylmethyl)-2-methoxybenzamide] | Yes | 0 | + | suppress apomorphine induced climbing behavior | without mammary hypertrophy | possess an antiemetic effect |  | 
CCN1CCCC1CNC(=O)c1cccc([N+](=O)[O-])c1OC (stereo not drawn) [Compound 7, N-(1-ethyl-2-pyrrolidinylmethyl)-2-methoxy-3-nitrobenzamide] | Yes | 0 | + |  |  |  |  | 
CCN1CCCC1CNC(=O)c1ccccc1OC (stereo not drawn) [Compound 4, N-(1-ethyl-2-pyrrolidinylmethy)-2-methoxybenzamide] | Yes | 0 | + | suppress apomorphine induced climbing behavior | without mammary hypertrophy | possess an antiemetic effect |  | 
CCN1CCCC1CNC(=O)c1cccc(Cl)c1C (stereo not drawn) [Compound 13, 3-chloro-N-(1-ethyl-2-pyrrolidinylmethyl)-2-methylbenzamide] | No | 0 | + |  |  |  |  | 
CCN1CCCC1CNC(=O)c1cc(C)ccc1OC (stereo not drawn) [Compound 6, N-(1-ethyl-2-pyrrolidinylmethyl)-2-methoxy-5-methylbenzamide] | Yes | 0 | + |  |  |  |  | 
CCN1CCCC1CNC(=O)c1cccc(Cl)c1OC (stereo not drawn) [Compound 1, 3-chloro-N-(1-ethyl-2-pyrrolidinylmethyl)-2-methoxybenzamide] | Yes | 0 | + | suppress apomorphine induced climbing behavior | without mammary hypertrophy | possess an antiemetic effect | 26.8 (20.7-38.5) mg/kg p.o. | 
CCN1CCCC1CNC(=O)c1cc(Cl)ccc1OC (stereo not drawn) [Compound 3, 5-chloro-N-(1-ethyl-2-pyrrolidinylmethyl)-2-methoxybenzamide] | Yes | 0 | + | suppress apomorphine induced climbing behavior | without mammary hypertrophy | possess an antiemetic effect |  | 
